Laboratory results from ChEMBL document CHEMBL1201862, “PubChem BioAssay data set” (2004).
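All cell lines were grown in 96-well plates and treated with compound for 48 hours. Here, GI50 denotes the concentration required for 50% inhibition of growth.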 Active and inactive are the calls of the source. Rule as the data show it: active = GI50 up to about 1.1 µM and inactive = higher.

Key:
Assay in all cases: NCI anticancer screen, dose series, 48 h
[1] = tested on: A498
[2] = tested on: BT-549
[3] = tested on: CCRF-CEM
[4] = tested on: HCT-116
[5] = tested on: HOP-62
[6] = tested on: HOP-92
[7] = tested on: HT-29
[8] = tested on: MCF7
[9] = tested on: MDA-MB-435
[10] = tested on: MOLT-4
[11] = tested on: NCI-H522
[12] = tested on: RPMI-8226
[13] = tested on: SF-295
[14] = tested on: SK-MEL-2
[15] = tested on: SK-MEL-5
[16] = tested on: SNB-19
[17] = tested on: SNB-75
[18] = tested on: TK-10
[19] = tested on: OVCAR-4

| Structure (SMILES) | GI50 [1] | GI50 [2] | GI50 [3] | GI50 [4] | GI50 [5] | GI50 [6] | GI50 [7] | GI50 [8] | GI50 [9] | GI50 [10] | GI50 [11] | GI50 [12] | GI50 [13] | GI50 [14] | GI50 [15] | GI50 [16] | GI50 [17] | GI50 [18] | GI50 [19] |
| --- | --- | --- | --- | --- | --- | --- | --- | --- | --- | --- | --- | --- | --- | --- | --- | --- | --- | --- | --- |
| C=CC1(CCC(Br)C(C)(C)Cl)CO1 (configuration not stated) | > 10 µM (inactive) | > 10 µM (inactive) | > 10 µM (inactive) | > 10 µM (inactive) | > 10 µM (inactive) | > 10 µM (inactive) | > 10 µM (inactive) | > 10 µM (inactive) | > 10 µM (inactive) | > 10 µM (inactive) | > 10 µM (inactive) | > 10 µM (inactive) | > 10 µM (inactive) | > 10 µM (inactive) | > 10 µM (inactive) | > 10 µM (inactive) | > 10 µM (inactive) | > 10 µM (inactive) |  |
| O=C(Cc1ccccc1)NNc1nc(NNC(=O)c2ccncc2)nc(Nc2ccc([N+](=O)[O-])cc2)n1 | > 10 µM (inactive) | 9.51 µM (inactive) | 7.57 µM (inactive) | > 10 µM (inactive) | > 10 µM (inactive) | > 10 µM (inactive) | > 10 µM (inactive) | > 10 µM (inactive) | > 10 µM (inactive) | > 10 µM (inactive) | > 10 µM (inactive) | > 10 µM (inactive) | > 10 µM (inactive) |  | > 10 µM (inactive) | 6.56 µM (inactive) | > 10 µM (inactive) | > 10 µM (inactive) | > 10 µM (inactive) |
| C[N+](C)(N)Cc1nc(-c2ccc(Cl)cc2)no1 | 70 µM (inactive) | > 100 µM (inactive) | 94.8 µM (inactive) | > 100 µM (inactive) | 88.9 µM (inactive) | > 100 µM (inactive) | > 100 µM (inactive) | > 100 µM (inactive) | > 100 µM (inactive) | 20.8 µM (inactive) | > 100 µM (inactive) | 52.8 µM (inactive) | > 100 µM (inactive) | > 100 µM (inactive) | 75.3 µM (inactive) | > 100 µM (inactive) | > 100 µM (inactive) | > 100 µM (inactive) | > 100 µM (inactive) |
| COC(=O)NC(Nc1ccc(Cl)cc1Cl)(C(F)(F)F)C(F)(F)F | 33.2 µM (inactive) | 17.1 µM (inactive) | 28.5 µM (inactive) | 64.7 µM (inactive) | > 100 µM (inactive) | 73.3 µM (inactive) | > 100 µM (inactive) | > 100 µM (inactive) | 25.1 µM (inactive) | 37.8 µM (inactive) | 37.1 µM (inactive) | 31.7 µM (inactive) | > 100 µM (inactive) | > 100 µM (inactive) | 26.7 µM (inactive) | > 100 µM (inactive) | > 100 µM (inactive) | 92.7 µM (inactive) |  |
| Cc1cc(-c2nc3cc(F)ccc3s2)ccc1NC(=O)C(C)N (configuration not stated) | 3.77 µM (inactive) | 4.24 µM (inactive) | 0.64 µM (active) | 3.29 µM (inactive) | 3.97 µM (inactive) | 3.97 µM (inactive) | 4.12 µM (inactive) | 0.0258 µM (active) | 4.81 µM (inactive) | 3.33 µM (inactive) | 4.09 µM (inactive) | 5.89 µM (inactive) | 3.82 µM (inactive) | 4.11 µM (inactive) | 9.84 µM (inactive) | 4.72 µM (inactive) | 5.05 µM (inactive) | 0.0501 µM (active) | 1.02 µM (active) |
| Cc1ccc(C(=N)c2ccccc2Cc2cccc3ccccc23)c2ccccc12 | > 100 µM (inactive) | > 100 µM (inactive) | 82.6 µM (inactive) | 22.1 µM (inactive) | > 100 µM (inactive) | > 100 µM (inactive) | 11.7 µM (inactive) | 42.6 µM (inactive) | > 100 µM (inactive) | 58.7 µM (inactive) | 56.5 µM (inactive) |  | 71.4 µM (inactive) | > 100 µM (inactive) | 31.9 µM (inactive) | > 100 µM (inactive) | > 100 µM (inactive) | > 100 µM (inactive) | > 100 µM (inactive) |
| O=C(CCc1ccc(O)c(O)c1)NCCc1ccc(O)c(O)c1 | > 100 µM (inactive) | > 100 µM (inactive) | 27.9 µM (inactive) | 42.8 µM (inactive) | > 100 µM (inactive) | > 100 µM (inactive) | > 100 µM (inactive) | 27.8 µM (inactive) | 17.9 µM (inactive) | 57.7 µM (inactive) | > 100 µM (inactive) | > 100 µM (inactive) | > 100 µM (inactive) | 83.9 µM (inactive) | > 100 µM (inactive) | > 100 µM (inactive) | > 100 µM (inactive) | > 100 µM (inactive) | 18.5 µM (inactive) |
| CC(=O)O[C@@H]1[C@H](C(C)C)[C@@H](OC(C)=O)C/C(C)=C/CC[C@]2(C)O[C@@H]12 | > 100 µM (inactive) | > 100 µM (inactive) |  | > 100 µM (inactive) | > 100 µM (inactive) | > 100 µM (inactive) | > 100 µM (inactive) | > 100 µM (inactive) | > 100 µM (inactive) | > 100 µM (inactive) | > 100 µM (inactive) | > 100 µM (inactive) | > 100 µM (inactive) | > 100 µM (inactive) | > 100 µM (inactive) | > 100 µM (inactive) | > 100 µM (inactive) | > 100 µM (inactive) | > 100 µM (inactive) |
| O=C(O)[C@@H]1C[C@@H](O)CN1C(=O)OCc1ccccc1 | > 100 µM (inactive) | > 100 µM (inactive) | > 100 µM (inactive) | > 100 µM (inactive) | > 100 µM (inactive) | > 100 µM (inactive) | > 100 µM (inactive) | > 100 µM (inactive) | > 100 µM (inactive) | > 100 µM (inactive) | > 100 µM (inactive) | > 100 µM (inactive) | > 100 µM (inactive) | > 100 µM (inactive) | > 100 µM (inactive) | > 100 µM (inactive) | 1.16 µM (inactive) | > 100 µM (inactive) | > 100 µM (inactive) |
| CCCCCCCCCCCCCC1=C(O)C(=O)C(CC2=C(O)C(=O)C(CCCCCCCCCCCCC)=C(O)C2=O)=C(O)C1=O | 90.4 µM (inactive) | > 100 µM (inactive) | 98.2 µM (inactive) | > 100 µM (inactive) |  | 75.2 µM (inactive) | > 100 µM (inactive) | > 100 µM (inactive) | > 10 µM (inactive) | > 10 µM (inactive) | > 100 µM (inactive) |  | 52 µM (inactive) | > 100 µM (inactive) | > 100 µM (inactive) | 27.9 µM (inactive) | 22.3 µM (inactive) | 61.4 µM (inactive) |  |
| O=c1c2ccccc2oc2c1ccc1ncccc12 | 5.01 µM (inactive) | 17.8 µM (inactive) | 11.1 µM (inactive) | 6.34 µM (inactive) | 15 µM (inactive) | 5.53 µM (inactive) | 14.5 µM (inactive) | 8.55 µM (inactive) | 25.7 µM (inactive) | 3.08 µM (inactive) | 12.7 µM (inactive) | 15.4 µM (inactive) | 12.9 µM (inactive) | 27.2 µM (inactive) | 11.5 µM (inactive) |  | 21.3 µM (inactive) | 6.73 µM (inactive) | 14.4 µM (inactive) |
| CCC1C(NC(=O)OC)C(=O)N1[C@@H](C)c1ccccc1 (some centres not stated) | > 100 µM (inactive) | > 100 µM (inactive) |  | > 100 µM (inactive) | > 100 µM (inactive) | > 100 µM (inactive) | > 100 µM (inactive) | > 100 µM (inactive) | > 100 µM (inactive) | > 100 µM (inactive) | > 100 µM (inactive) | > 100 µM (inactive) | > 100 µM (inactive) | > 100 µM (inactive) | > 100 µM (inactive) | > 100 µM (inactive) | 82.6 µM (inactive) | > 100 µM (inactive) | > 100 µM (inactive) |
| O=C1/C(=C/c2ccccc2)CCCC1CN1CCCCC1 (configuration not stated) | 16.7 µM (inactive) | 2.95 µM (inactive) |  | 1.68 µM (inactive) | 20.8 µM (inactive) | 2.24 µM (inactive) | 1.58 µM (inactive) | 0.428 µM (active) | 2 µM (inactive) | 1.43 µM (inactive) | 0.242 µM (active) | > 100 µM (inactive) | 19.1 µM (inactive) | 4.56 µM (inactive) | 4.31 µM (inactive) | 15.7 µM (inactive) | 7.91 µM (inactive) | 2.59 µM (inactive) | 2.05 µM (inactive) |
| O=C1NC(=O)C2(CCC(O)C2)c2cc[n+]([O-])cc21 (configuration not stated) | > 100 µM (inactive) | > 100 µM (inactive) | > 100 µM (inactive) | > 100 µM (inactive) | > 100 µM (inactive) | > 100 µM (inactive) | > 100 µM (inactive) | > 100 µM (inactive) | > 100 µM (inactive) | > 100 µM (inactive) | > 100 µM (inactive) | > 100 µM (inactive) | > 100 µM (inactive) | > 100 µM (inactive) |  | > 100 µM (inactive) | 60.1 µM (inactive) | > 100 µM (inactive) | > 100 µM (inactive) |
| N#Cc1c(Cl)cccc1Oc1ccc(S(=O)(=O)N/C(=N\O)Nc2ccc(Cl)cc2)cc1 | 15.3 µM (inactive) | 16.4 µM (inactive) | 18.9 µM (inactive) | 14.2 µM (inactive) | 17.5 µM (inactive) | 11 µM (inactive) | 17.3 µM (inactive) | 17.1 µM (inactive) | 17.9 µM (inactive) | 18.4 µM (inactive) | 18 µM (inactive) | 30.4 µM (inactive) | 17.2 µM (inactive) | 17.6 µM (inactive) | 17.2 µM (inactive) | 16.3 µM (inactive) |  | 16.6 µM (inactive) | 14.8 µM (inactive) |
